We go through 1 compound from patent US20170370908A1, “BRAIN IN VITRO MODELS, DEVICES, SYSTEMS, AND METHODS OF USE THEREOF” (President and Fellows of Harvard College, priority 2014, published 2017).

In the test the test system is pericytes. Kind of test: Muscular thin film (MTF) assay of pericyte contraction response to vasoactive agents. The format is cell-based. The following applies: pericytes on muscular thin films treated with vasoactive agent. From the text: FIG. 6 illustrates an assay used to measure stress applied by pericytes treated with the vasoactive agent, endothelin.
FIG. 7 illustrates stress measurement applied by pericytes treated with vasoactive agent endothelin.

On to `CC[C@H](C)[C@H](NC(=O)[C@H](CC(=O)O)NC(=O)[C@H](CC(C)C)NC(=O)[C@H](Cc1c[nH]cn1)NC(=O)[C@@H]1CSSC[C@H](N)C(=O)N[C@@H](CO)C(=O)N[C@H]2CSSC[C@H](NC(=O)[C@H](CCC(=O)O)NC(=O)[C@H](CCCCN)NC(=O)[C@H](CC(=O)O)NC(=O)[C@H](CCSC)NC(=O)[C@H](CC(C)C)NC(=O)[C@H](CO)NC(=O)[C@H](CO)NC2=O)C(=O)N[C@@H](C(C)C)C(=O)N[C@@H](Cc2ccc(O)cc2)C(=O)N[C@@H](Cc2ccccc2)C(=O)N1)C(=O)N[C@H](C(=O)N[C@@H](Cc1c[nH]c2ccccc12)C(=O)O)[C@@H](C)CC` [endothelin], for which the “contraction response of pericytes (stress applied by pericytes)” value is listed as “induces pericyte contraction”.
